According to patent EP0405506A1, “Tetrapeptide type-B CCK receptor ligands” (ABBOTT LABORATORIES, priority 1989, dated 1991):

How the values were obtained:
VTA neurons = test: Potentiation of ethanol-induced excitation of VTA neurons in rat brain slices (extracellular recording); format: cell-based, Sprague-Dawley rats; conditions: ethanol 80 to 160 mM, agonist infused at least 10 minutes before ethanol
Procedure: Brain slices form Sprague-Dawley rats (100-200 gm) containing the ventral tegmental area were prepared as previously described (Brodie and Dunwiddie, Brain Research, 425, 106 (1987)). Animals used in this study were treated in strict accordance with the NIH Guide for the Care and use of Laboratory Animals. Coronal sections (400 um thick) were cut and the tissue was place directly in the recording chamber. Small platinum weights were placed on the slice to increase the stability of recordings. The slice was covered with medium and a superfusion system then maintained the flow of medium at 2 ml/min; the temperature in the recording chamber was kept at 35°C. […] The flow rate was continuously monitored with a flowmeter and adjustable valves were used to keep the rate constant. […]
Ethanol and the CCK agonist compound were added to the aCSF in the fluid delivery tubing by means of a calibrated infusion pump from stock solutions 100 to 1000 times the desired final concentrations. Final concentrations were calculated from aCSF flow rate, pump infusion rate and concentration of drug stock solution. […]
Frequency of firing was determined using a window discriminator and ratemeter, the output of which was fed to a chart recorder. […]

cortical CCK receptor = target: T1, cortical CCK receptor (Cavia porcellus, UniProt H0VZC5); test: Radioligand binding ([125I]Bolton-Hunter CCK8) in guinea pig cerebral cortical membranes; conditions: displacement of [125I]BH-CCK8, cortical membranes, 30°C for 150 min, Hill analysis; read-out: IC₅₀ (nM) cortex
T1 construct: Cortical and pancreatic membranes were prepared as described; from tissue; host or cells: guinea pig cerebral cortex membranes
T1 sequence (H0VZC5 1-426): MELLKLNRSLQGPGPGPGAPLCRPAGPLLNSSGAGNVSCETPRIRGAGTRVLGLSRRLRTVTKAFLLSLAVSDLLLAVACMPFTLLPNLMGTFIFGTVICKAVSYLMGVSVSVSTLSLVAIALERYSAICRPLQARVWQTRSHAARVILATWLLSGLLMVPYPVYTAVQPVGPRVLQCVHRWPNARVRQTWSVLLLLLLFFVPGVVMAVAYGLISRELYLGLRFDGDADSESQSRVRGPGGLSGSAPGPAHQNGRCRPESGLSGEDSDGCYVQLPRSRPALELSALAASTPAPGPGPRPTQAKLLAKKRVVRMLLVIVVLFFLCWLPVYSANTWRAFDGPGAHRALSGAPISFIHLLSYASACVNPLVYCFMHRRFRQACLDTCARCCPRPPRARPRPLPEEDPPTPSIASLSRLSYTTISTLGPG
Description: Protocol for Radioligand Binding Experiments in Guinea Pig Cerebral Cortical and Pancreatic Membrance Preparations
CCK8 (Asp-Tyr(SO₃H)-Met-Gly-Trp-Met-Asp-Phe-NH₂), bestatin and phosphormaidon were purchased from Peptide International (Louisville, KY). EGTA, HEPES, BSA were purchased from Sigma Chemical Co. (St. Louis, MO). [¹²⁵I]-Bolton-Hunter CCK8 (BH-CCK8) (specific activity, 2200 Ci, mmol) was obtained from New England Nuclear (Boston, MA). Male ginea pigs, 250 to 325 g, were obtained from Scientific Small Animal Laboratory and Farm (Arlington Heights, IL). Collangenase, code CLSPA was purchased from Worthington (Frehold, NJ).
Cortical and pancreatic membranes were prepared as described (Lin and Miller; J. Pharmacol. Exp. Ther. 232, 775-780, 1985). In brief, pancreas and cortex were removed and rinsed with ice-cold saline. Visible fat and connective tissues were removed from the pancreas. Tissues were weighed and homogenized in approximately 25 mL of ice-cold 50 mM Tris-HCl buffer, pH 7.4 at 4°C with a Brinkman Polytron for 30 sec, setting 7. The homogenates were centrifuged for 10 min at 1075 x g and the pellet was discarded. The supernantants were saved and centrifuged at 38,730 x g for 20 min. The resultant pellets were rehomogenized in 25 mL of 50 mM Tris-HCl buffer with a Teflon-glass homogenizer, 5 up and down strokes. The homogenates were centrifuged again at 38,730 x g for 20 min. The pellets were then resuspended in 20 mM HEPES, containing 1 mM EGTA, 118 mM NaCl, 4.7 mM KCl, 5mM MgCl₂, 100 uM bestatin, 3 uM phosphoramidon, pH 7.4 at 22°C with a Teflon-glass homogenizer, 15 up and down strokes. The resuspension volume used for the cortex was 15 mL per g of original wet weight and 60 mL per g for pancreas.
[¹²⁵I]Bolton-Hunter CCK8 and test compounds were diluted with HEPES-EGTA-salt buffer (see above) containing 0.5% bovine serum albumin (BSA). To 1 mL Skatron polystyrene tubes were added 25 uL of test compounds, 25 uL of [¹²⁵I]BH-CCK8 and 200 uL of membrane suspension. The final BSA concentration was 0.1%. The cortical tissues were incubated at 30°C for 150 min. and pancreatic tissues were incubated at 37°C for 150 min. Incubations were terminated by filtration using Skatron Cell Harvester and SS32 microfiber filter mats. The specific binding of [¹²⁵I]BH-CCK8, defined as the difference betwen binding in the absence and presence of 1 uM CCK8, was 85-90% of total binding in cortex and 90-95% in pancreas. IC₅₀s were determined from the Hill analysis.

## CCC[C@H]1CCN(C(=O)[C@@H]2Cc3c[nH]c4cccc(c34)CC(=O)N2)[C@@H]1C(=O)N[C@@H](CC(=O)O)C(=O)N[C@@H](Cc1ccccc1)C(N)=O [Example 48, Ctp-Tpp-Asp-Phe-NH₂]
VTA neurons
  effect on excitatory effect of ethanol on VTA neurons (firing rate): increases the excitatory effect of ethanol on VTA neurons
Cortical CCK receptor
  IC50: 0.7 nM
